Assay results reported in patent US20170265465A1, “BIORATIONAL TREATMENT PRODUCTS AND METHODS OF USING SAME” (Board of Trustees of Michigan State University, priority 2014, published 2017).

Legend:
Assay type in all cases: in vivo
[1] = test system: creeping bentgrass (Argostis palustris) fairway; experiment: Example 2: clippings (biomass) dry weight
Method: Objective biomass ratings were also performed based on an increase in dried weight of clippings. Clippings were collected over pre-measured plot areas in each treatment replicate using a Toro® brand walk-behind greens mower Model […] 8000 at the height described in this Example and dried in a drying oven (60° C.) for approximately 48 hours before being weighed. […] Prior to the study, diseases were controlled with as-needed fungicide applications. Fertility was maintained at approximately 0.1 lb.

[2] = test system: creeping bentgrass (Argostis palustris) fairway; experiment: Example 2: visual growth (biomass) rating; conditions: scale 1 = least, 9 = most increase
[3] = test system: irrigated putting green; experiment: Example 15: dew rating; conditions: Sept. 15, visual scale 1 = least
Method: (§1) The study was established in four replications of a randomized block design utilizing 2 ft.×21 ft. plots with 6 inch alleys. Treatments were initially applied on Sep. 13, 2016 with the same sprayer and under the same conditions described in Example 1. Turfgrass quality ratings and biomass ratings were performed as described in Example 1. The plots were trimmed on September 19, October 8, and Oct. 24, 2016 and clippings were also collected as described in Example 1.
(§2) Treatments were re-applied on Sep. 28, 2016 and Oct. 11, 2016. Turfgrass visual growth and quality ratings were taken periodically, along with turfgrass color ratings as taken with a Spectrum Technologies, Inc. TCM 500 NDVI Color Meter and a Spectrum Technologies, Inc. FieldScout CM 1000 Chlorophyll Meter. The study was irrigated as needed to prevent wilt. No background fertility was applied to the study area. The area was sprayed with 26GT fungicide on Sep. 27, 2016 to control dollar spot disease.
Dew reduction (Table 25) is directly related to the amount of bio-adjuvant applied, specifically, the amount of canola oil in the treatment. Dew reduction is relevant to disease control because it can translate into reduced foliar disease pressure, and reduced frost accumulation. […] 15, 2016.

[4] = test system: creeping bentgrass (Argostis palustris) fairway; experiment: Example 2, 2013 urea (46-0-0)/canola oil study: turfgrass quality rating; conditions: scale 1-9, 7 = acceptable
From the text: This study was established on an irrigated, creeping bentgrass (Argostis palustris) fairway (˜0.5 in (1.3 cm) height of cut) on the same research center as in Example 1. The study was established in four replications of a randomized block design, using 2 ft.×10.5 ft. (0.6 m×3.2 m) plots with 6 in. (0.15 m) alleys. Prior to the study, diseases were controlled with as-needed fungicide applications. Fertility was maintained at approximately 0.1 lb. N/1000 ft^2 (0.49 g/m^2)/mo. […] Turfgrass quality ratings and biomass ratings were performed as described in Example 1. Clippings were also collected as described in Example 1.
Treatments of sprayable urea (46-0-0) (The Andersons, Inc.) hereinafter “Urea (46-0-0)” and Civitas/Harmonizer fungicide/turf pigment (Suncor Energy Corp.) were applied initially on Aug. 22, 2013.

[5] = test system: winter-dormant creeping bentgrass putting green (Agrostis palustris); experiment: Example 4, 2013 spring green-up/winter dormancy break study: turfgrass quality rating; conditions: May 11, 2013; scale 1-9, 7 = acceptable; per 1000 ft^2, as far as in the treatment: canola oil concentrate (94.7%:4.7%:0.8% oil:Foursome:Silwet L-77) 8 fl. oz., Urea 0.2 lb. N
From the text: This study was established on a brown, desiccated, winter-dormant creeping bentgrass putting green (Agrostis palustris) (˜0.15 in ([…]) height of cut) on the same research center as in previous examples. The study was established in four replications of a randomized block design, using 2 ft.×7.5 ft. (0.6 m×2.3 m) plots with 6 in. (0.15 m) alleys. Treatments were applied with the backpack sprayer described in Example 1 operating at 40 PSI (2.8 kg/cm^2) with a 96 GPA (898 L/ha) spray volume. Treatments were applied in this “green-up”/winter dormancy break study on a 21-day schedule on Apr. 5, 2013, and Apr. 27, 2013 Turfgrass quality ratings in this example included observations of increased density, increased growth, and degree of color intensity change. These observations were taken on May 11, 2013, and were based on a visual 1 (worst) −9 (best) rating scale, with a 7-rating representing acceptable turfgrass “quality.”

[6] = test system: irrigated putting green; experiment: Example 15: dried clipping weights; conditions: application interval 14 days; for All Clippings (Dried), Mean Total Clippings: Sept 19-Oct. 24
Method: Some biomass ratings were subjective visual estimations based on appearance of a combination of increased biomass and increased density on a 1 (least increase) to 9 (most increase) scale. Objective biomass ratings were also performed based on an increase in dried weight of clippings. Clippings were collected over pre-measured plot areas in each treatment replicate using a Toro® brand walk-behind greens mower Model Greensmaster 8000 at the height described in this Example and dried in a drying oven (60° C.) for approximately 48 hours before being weighed.
as §1, §2

[7] = test system: irrigated putting green; experiment: Example 15: visual turfgrass growth rating; conditions: scale 1-5 (1 = least, 5 = most)
Method: as §1, §2

[8] = test system: irrigated putting green; experiment: Example 15: turfgrass color (chlorophyll) rating, FieldScout CM 1000 Chlorophyll Meter
Method: as §1, §2
The turfgrass color (chlorophyll) rating of Oct.

[9] = Sep. 3, 2013, one application, per 1000 ft^2, as far as in the treatment: Urea 0.1 lb. N, Canola Oil Concentrate/Bio-Adjuvant 10 fl. oz., Civitas 8 + Harmonizer 0.5 fl. oz.
[10] = Sep. 3, 2013, Urea 0.2 lb. N/1000 ft^2, Canola Oil 10 fl. oz. or Civitas 8 + Harmonizer 0.5 fl. oz. where in the treatment
[11] = Sep. 3, 2013, Urea 0.3 lb. N/1000 ft^2, Canola Oil Bio-Adjuvant 10 fl. oz. or Civitas 8 + Harmonizer 0.5 fl. oz. where in the treatment
[12] = Trt. 4, 0.1 lb N/1000 sq. ft. /14 days, Oct. 6
[13] = Trt. 5, 0.05 lb N/1000 sq. ft. /14 days, Oct. 6

NC(N)=O [Urea (46-0-0), urea]
Clippings (Biomass) Dry wt (g) [1, 9]: 7.21 f g | Clippings (Biomass) Dry wt (g) [1, 10]: 7.87 f g | Clippings (Biomass) Dry wt (g) [1, 11]: 9.77 bcd g | Visual Growth (Biomass) [2, 9]: 3 ef | Visual Growth (Biomass) [2, 10]: 3.75 de | Visual Growth (Biomass) [2, 11]: 3.75 de | Dew rating, Mean ([3]; Trt. 4, 0.1 lb N/1000 sq. ft. /14 days): 5.0 | Dew rating, Mean ([3]; Trt. 5, 0.05 lb N/1000 sq. ft. /14 days): 5.0 | Turfgrass Quality [4, 9]: 6.5 ef | Turfgrass Quality [4, 10]: 6.75 de | Turfgrass Quality [4, 11]: 7.5 bc | Turfgrass Quality [5]: 6.0 c | Dried Clipping Weight, Mean ([6]; Trt. 4, 0.1 lb N/1000 sq. ft., Oct. 8): 62.5 gms | Dried Clipping Weight, Mean ([6]; Trt. 4, 0.1 lb N/1000 sq. ft., Oct. 24): 55.8 gms | All Clippings (Dried), Mean Total Clippings ([6]; Trt. 4, 0.1 lb N/1000 sq. ft.): 189.8 gms | Dried Clipping Weight, Mean ([6]; Trt. 4, 0.1 lb N/1000 sq. ft., Sept. 19): 71.5 gms | Dried Clipping Weight, Mean ([6]; Trt. 5, 0.05 lb N/1000 sq. ft., Oct. 8): 59.5 gms | Dried Clipping Weight, Mean ([6]; Trt. 5, 0.05 lb N/1000 sq. ft., Oct. 24): 46.5 gms | All Clippings (Dried), Mean Total Clippings ([6]; Trt. 5, 0.05 lb N/1000 sq. ft.): 177.3 gms | Dried Clipping Weight, Mean ([6]; Trt. 5, 0.05 lb N/1000 sq. ft., Sept. 19): 71.3 gms | Visual Turfgrass Growth, MEAN [7, 12]: 2.5 | Visual Turfgrass Growth, MEAN ([7]; Trt. 4, 0.1 lb N/1000 sq. ft. /14 days, Sept. 19): 2.5 | Visual Turfgrass Growth, MEAN ([7]; Trt. 4, 0.1 lb N/1000 sq. ft. /14 days, Sept. 25): 3.8 | Visual Turfgrass Growth, MEAN [7, 13]: 2.3 | Visual Turfgrass Growth, MEAN ([7]; Trt. 5, 0.05 lb N/1000 sq. ft. /14 days, Sept. 19): 2.8 | Visual Turfgrass Growth, MEAN ([7]; Trt. 5, 0.05 lb N/1000 sq. ft. /14 days, Sept. 25): 3.3 | Turfgrass Color (Greenness), MEAN, chlorophyll meter reading [8, 12]: 352.5 | Turfgrass Color (Greenness), MEAN, chlorophyll meter reading ([8]; Trt. 4, 0.1 lb N/1000 sq. ft. /14 days, Oct. 25): 272.3 | Turfgrass Color (Greenness), MEAN, chlorophyll meter reading [8, 13]: 352.3 | Turfgrass Color (Greenness), MEAN, chlorophyll meter reading ([8]; Trt. 5, 0.05 lb N/1000 sq. ft. /14 days, Oct. 25): 261
